Counter-ions that a name gives are not always drawn.
Key:
NCI-H69 cells = experiment: In vitro cell inhibition assay - NCI-H69 cell proliferation (CellTiter-Glo); type: cell-based; details: Homo sapiens, NCI-H69, H69 small cell lung cancer cell proliferation
Procedure, shortened: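 7-day exposure at 37° C., 5% CO2 to compounds serially diluted 5-fold (8 concentrations) in RPMI-640 containing 20% FBS, after overnight attachment at 1×10^3 cells/well. Read-out: CellTiter-Glo luminescence (RLU); IC50 from curve fit of inhibition rate.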

LSD1 = LSD1 (Homo sapiens (Human), UniProt O60341); experiment: In vitro enzyme inhibition assay - LSD1 (HTRF); type: biochemical
pan-HDAC = experiment: In vitro enzyme inhibition assay - HDAC (HDAC-Glo I/II), pan-HDAC; type: biochemical
Procedure, shortened: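 The compound, serially diluted 5-fold in DMSO across 8 concentrations starting from a 1 mM stock, was made up as 4× working solutions in HDAC buffer. It was then tested in the HDAC-Glo I/II system, and luminescence was recorded. IC50 values came from variable-slope four-parameter curves of inhibition rate.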

NCI-H1417 cells = experiment: In vitro cell inhibition assay - H1417 cell proliferation (CellTiter-Glo); type: cell-based; details: Homo sapiens, NCI-H1417, H1417 small cell lung cancer cell proliferation
Procedure, shortened: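 Cells exposed to 8 compound concentrations (5-fold dilutions) in BEGM with 10% FBS for 7 days at 37° C., 5% CO2. Viable cells measured by CellTiter-Glo luminescence; inhibition versus no-inhibitor and no-cell controls, IC50 fitted.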

HDAC8 = HDAC8 (Homo sapiens (Human), UniProt Q9BY41); experiment: In vitro enzyme inhibition assay - HDAC (HDAC-Glo I/II), HDAC8; type: biochemical; details: read-out: HDAC IC50 (nM) HDAC 8
Protocol: 2. In Vitro Enzyme Inhibition Assay—HDAC
The effect of the compound on the enzymatic activity of pan-HDAC and two isoforms (HDAC1 and HDAC8) was examined using the HDAC-Glo I/II Assay and Screening System assay to assess the level of inhibition of HDAC protease activity and selectivity in each isoform. The proteins and detection reagents were from the HDAC-Glo™ I/II Assay and Screening System (Promega). A 1 mM stock solution of the compound was prepared in DMSO and diluted in a 5-fold gradient to create a series of 8 concentrations, and a specific volume of the highest concentration was diluted 25 times with HDAC Buffer to obtain 4× working solution of the compound. […] The 384-well plate was then read on a multifunctional microplate reader, with the Luminescence channel selected to record Luminescence values (RLU). The inhibition rate was calculated using the following formula: […]
Note: ‘Negative’ refers to the group without the inhibitor; ‘Blank’ refers to the group without the enzyme.
The IC50 value was calculated by fitting the inhibition rate by GraphPad Prism software, employing log (inhibitor) vs. response-Variable Slope (four parameters) model.

Sequence of HDAC8 (Q9BY41 whole entry): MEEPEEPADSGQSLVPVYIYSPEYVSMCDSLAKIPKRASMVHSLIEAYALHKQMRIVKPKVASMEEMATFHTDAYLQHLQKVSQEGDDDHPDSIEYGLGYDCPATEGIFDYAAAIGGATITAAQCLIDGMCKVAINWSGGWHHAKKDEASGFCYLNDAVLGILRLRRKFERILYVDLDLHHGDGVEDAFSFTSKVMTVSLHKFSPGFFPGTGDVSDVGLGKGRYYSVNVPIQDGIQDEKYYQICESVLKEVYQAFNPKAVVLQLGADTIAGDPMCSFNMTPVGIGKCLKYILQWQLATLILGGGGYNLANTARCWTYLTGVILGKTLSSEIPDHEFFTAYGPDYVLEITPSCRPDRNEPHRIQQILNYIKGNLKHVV

COc1ccc(-c2cnc(N3CCC(NCc4ccc(/C=C/C(=O)NO)cc4)CC3)c(C#N)c2-c2ccc(C#N)c(O)c2)cc1O [Example 166, (E)-3-(4-(((1-(3-Cyano-4-(4-cyano-3-hydroxyphenyl)-5-(3-hydroxy-4-methoxyphenyl)pyridin-2-yl)piperidin-4-yl)amino)methyl)phenyl-N-hydroxyacrylamide hydrochloride]
IC50 (NCI-H69 cells): 0.208 µM
IC50 (LSD1): 0.0151 µM
IC50 (pan-HDAC): 2.27 nM
IC50 (NCI-H1417 cells): 0.0616 µM
IC50 (HDAC8): 64 nM

CNc1ccc(-c2cnc(N3CCC(NCc4cnc(/C=C/C(=O)NO)nc4)CC3)c(C#N)c2-c2ccc(C#N)c(F)c2)cc1O [Example 196, (E)-3-(5-(((1-(3-Cyano-4-(4-cyano-3-fluorophenyl)-5-(3-hydroxy-4-(methylamino)phenyl)pyridin-2-yl)piperidin-4-yl)amino)methyl)pyrimidin-2-yl)-N-hydroxyacrylamide hydrochloride]
IC50 (NCI-H69 cells): 0.0833 µM
IC50 (LSD1): 0.00668 µM
IC50 (pan-HDAC): 5.69 nM
IC50 (NCI-H1417 cells): 0.0393 µM
IC50 (HDAC8): 26.5 nM

CN(C)c1ccc(-c2cnc(N3CCC(NCc4ccc(/C=C/C(=O)NO)cc4)CC3)c(C#N)c2-c2ccc(C#N)c(F)c2)cc1O [Example 153, (E)-3-(4-(((1-(3-Cyano-4-(4-cyano-3-fluorophenyl)-5-(4-(dimethylamino)-3-hydroxyphenyl)pyridin-2-yl)piperidin-4-yl)amino)methyl)phenyl)-N-hydroxyacrylamide formate]
IC50 (NCI-H69 cells): 0.0655 µM
IC50 (LSD1): 0.00074 µM
IC50 (pan-HDAC): 5.49 nM
IC50 (NCI-H1417 cells): 0.00621 µM
IC50 (HDAC8): 400 nM

COc1ccc(-c2cnc(N3CCC(NCc4ccc(CCC(=O)NO)cc4)CC3)c(C)c2-c2ccc(C#N)c(F)c2)cc1O [Example 209, 3-(4-(((1-(4-(4-Cyano-3-fluorophenyl)-5-(3-hydroxy-4-methoxyphenyl)-3-methylpyridin-2-yl)piperidin-4-yl)amino)methyl)phenyl)-N-hydroxypropanamide hydrochloride]
IC50 (NCI-H69 cells): 0.0403 µM
IC50 (LSD1): 0.0006 µM
IC50 (pan-HDAC): 163 nM
IC50 (NCI-H1417 cells): 0.0145 µM
IC50 (HDAC8): 3.09 nM

COc1ccc(-c2cnc(N3CCC(N)(CCc4ccc(/C=C/C(=O)NO)cc4)CC3)c(C#N)c2-c2ccc(C#N)c(F)c2)cc1O [Example 86, (E)-3-(4-(2-(4-amino-1-(3-cyano-4-(4-cyano-3-fluorophenyl)-5-(3-hydroxy-4-methoxyphenyl)pyridin-2-yl)piperidin-4-yl)ethyl)phenyl)-N-hydroxyacrylamide formate]
IC50 (NCI-H69 cells): 0.145 µM
IC50 (LSD1): 0.00946 µM
IC50 (pan-HDAC): 13.8 nM
IC50 (NCI-H1417 cells): 0.0154 µM
IC50 (HDAC8): 578 nM

COc1cc(O)c(-c2cnc(N3CCC(NCc4ccc(/C=C/C(=O)NO)cc4)CC3)c(C#N)c2-c2ccc(C#N)c(F)c2)cc1O [Example 158, (E)-3-(4-(((1-(3-Cyano-4-(4-cyano-3-fluorophenyl)-5-(2,5-dihydroxy-4-methoxyphenyl)pyridin-2-yl)piperidin-4-yl)amino)methyl)phenyl)-N-hydroxyacrylamide trifluoroacetate]
IC50 (NCI-H69 cells): 0.251 µM
IC50 (LSD1): 0.00073 µM
IC50 (pan-HDAC): 0.61 nM
IC50 (NCI-H1417 cells): 0.0936 µM
IC50 (HDAC8): 87.8 nM

CC(C)(O)COc1ccc(-c2cnc(N3CCC(NCc4cnc(CCC(=O)NO)s4)CC3)c(C#N)c2-c2ccc(C#N)c(F)c2)cc1O [Example 185, 3-(5-((1-(3-Cyano-4-(4-cyano-3-fluorophenyl)-5-(3-hydroxy-4-(2-hydroxy-2-methylpropoxy)phenyl)pyridin-2-yl)piperidin-4-yl)amino)methyl)thiazol-2-yl)-N-hydroxypropanamide formate]
IC50 (NCI-H69 cells): 0.275 µM
IC50 (LSD1): 0.0039 µM
IC50 (pan-HDAC): 60.1 nM
IC50 (NCI-H1417 cells): 0.00616 µM
IC50 (HDAC8): 2160 nM
